Results from ChEMBL document CHEMBL5465560, “Selectivity Literature for EUbOPEN Chemogenomic Library” (2024).

Columns and labels:
[1] = target: Ribosomal protein S6 kinase alpha-6 (Homo sapiens, UniProt Q9UK32); assay: Selectivity interaction (KinomeScan (DiscoverX)) EUB0000229b RPS6KA6; details: at 10 µM
[2] = tested on: Leucine-rich repeat serine/threonine-protein kinase 2 (Homo sapiens), Q5S007 [G2019S]; assay: (§1) Selectivity interaction (KinomeScan (DiscoverX)) EUB0000229b LRRK2; details: at 1 µM
[3] = target: Leucine-rich repeat serine/threonine-protein kinase 2 (Homo sapiens, UniProt Q5S007); assay: as §1; details: at 10 µM
[4] = target: T1, Ephrin type-A receptor 3 (Homo sapiens) (UniProt P29320); assay: Selectivity interaction (KinomeScan (DiscoverX)) EUB0000595a EPHA3; details: at 10 µM
T1 sequence (whole entry): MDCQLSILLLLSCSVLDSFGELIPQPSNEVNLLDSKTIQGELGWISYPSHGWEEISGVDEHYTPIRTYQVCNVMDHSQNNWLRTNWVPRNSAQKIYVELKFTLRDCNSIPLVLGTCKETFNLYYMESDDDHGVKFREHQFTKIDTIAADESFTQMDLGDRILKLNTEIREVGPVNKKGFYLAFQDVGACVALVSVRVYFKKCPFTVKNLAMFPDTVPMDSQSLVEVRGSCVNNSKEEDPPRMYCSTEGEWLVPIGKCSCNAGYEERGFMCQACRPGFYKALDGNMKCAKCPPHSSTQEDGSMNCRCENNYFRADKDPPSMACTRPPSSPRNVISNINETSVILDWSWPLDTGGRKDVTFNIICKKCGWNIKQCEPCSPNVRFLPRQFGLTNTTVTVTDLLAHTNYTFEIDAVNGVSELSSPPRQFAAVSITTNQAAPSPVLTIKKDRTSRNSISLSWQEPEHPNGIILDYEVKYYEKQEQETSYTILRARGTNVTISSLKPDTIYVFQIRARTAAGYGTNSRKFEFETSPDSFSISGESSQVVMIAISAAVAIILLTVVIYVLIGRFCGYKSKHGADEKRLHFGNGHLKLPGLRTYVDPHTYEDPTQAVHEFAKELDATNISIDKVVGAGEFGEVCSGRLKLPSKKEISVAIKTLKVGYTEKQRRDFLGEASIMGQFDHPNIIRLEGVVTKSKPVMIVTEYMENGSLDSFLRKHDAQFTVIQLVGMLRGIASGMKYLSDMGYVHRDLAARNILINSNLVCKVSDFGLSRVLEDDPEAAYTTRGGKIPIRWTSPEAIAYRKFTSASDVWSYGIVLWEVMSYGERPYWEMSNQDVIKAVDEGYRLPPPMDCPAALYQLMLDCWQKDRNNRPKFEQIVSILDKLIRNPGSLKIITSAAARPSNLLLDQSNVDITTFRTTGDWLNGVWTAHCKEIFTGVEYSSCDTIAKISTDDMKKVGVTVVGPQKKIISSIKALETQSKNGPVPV

[5] = target: Protein-tyrosine kinase 6 (Homo sapiens, UniProt Q13882); assay: Selectivity interaction (KinomeScan (DiscoverX)) EUB0000595a PTK6; details: at 10 µM
[6] = target: Mitogen-activated protein kinase kinase kinase 11 (Homo sapiens) (UniProt Q16584); assay: Selectivity interaction (KinomeScan (DiscoverX)) EUB0000595a MAP3K11; details: at 10 µM
[7] = tested on: Epidermal growth factor receptor (Homo sapiens), P00533 [UNDEFINED MUTATION]; assay: Selectivity interaction (KinomeScan (DiscoverX)) EUB0001079a EGFR; details: at 1 µM
[8] = target: Serine/threonine-protein kinase N2 (Homo sapiens, UniProt Q16513); assay: Selectivity interaction (KinomeScan (DiscoverX)) EUB0001079a PKN2; details: at 1 µM
[9] = target: Microtubule-associated serine/threonine-protein kinase 1 (Homo sapiens) (UniProt Q9Y2H9); details: at 10 µM
[10] = target: Serine/threonine-protein kinase pim-2 (Homo sapiens, UniProt Q9P1W9); assay: Selectivity interaction (KinomeScan (DiscoverX)) EUB0001049a PIM2; details: at 1 µM
[11] = target: DNA (cytosine-5)-methyltransferase 1 (Homo sapiens) (UniProt P26358); assay: Selectivity interaction (Methyltransferase screen (Scintillation proximity assays)) EUB0000255b DNMT1
[12] = target: T2, Rhodopsin kinase GRK1 (Homo sapiens) (UniProt Q15835); assay: Selectivity interaction (KinomeScan (DiscoverX)) EUB0000618a GRK1; details: at 10 µM
T2 sequence (whole entry): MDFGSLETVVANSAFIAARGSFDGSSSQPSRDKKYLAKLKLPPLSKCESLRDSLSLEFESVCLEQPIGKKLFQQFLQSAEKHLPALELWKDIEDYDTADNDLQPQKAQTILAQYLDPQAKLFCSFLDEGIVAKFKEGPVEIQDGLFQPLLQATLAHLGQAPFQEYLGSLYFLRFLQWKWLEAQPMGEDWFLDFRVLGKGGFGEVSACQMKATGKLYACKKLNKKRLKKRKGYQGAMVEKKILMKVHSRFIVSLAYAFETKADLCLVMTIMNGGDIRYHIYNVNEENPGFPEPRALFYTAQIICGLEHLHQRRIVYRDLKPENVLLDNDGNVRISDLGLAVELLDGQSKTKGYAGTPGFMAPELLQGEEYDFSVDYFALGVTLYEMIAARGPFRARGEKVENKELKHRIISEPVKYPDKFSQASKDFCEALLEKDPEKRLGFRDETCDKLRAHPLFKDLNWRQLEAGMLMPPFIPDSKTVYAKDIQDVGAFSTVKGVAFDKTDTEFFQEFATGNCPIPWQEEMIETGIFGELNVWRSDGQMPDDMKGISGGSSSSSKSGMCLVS

[13] = target: Mu-type opioid receptor (Homo sapiens, UniProt P35372); assay: Selectivity interaction (Panel of kinases, GPCRs, ion channels and transporters (enzymatic assay)) EUB0000266bCl OPRM1
[14] = target: Serine/threonine-protein kinase 32C (Homo sapiens) (UniProt Q86UX6); assay: Selectivity interaction (ActivX KiNativ screen (kinase selectivity in THP-1 cell lysates)) EUB0000639a STK32C; assay type: subcellular; details: lysate
[15] = target: Mitogen-activated protein kinase 14 (Homo sapiens, UniProt Q16539); assay: Selectivity interaction (ActivX KiNativ screen (kinase selectivity in THP-1 cell lysates)) EUB0000639a MAPK14; assay type: subcellular; details: lysate, at 0.01 µM
[16] = target: Calcium/calmodulin-dependent protein kinase kinase 2 (Homo sapiens) (UniProt Q96RR4); assay: Selectivity interaction (ActivX KiNativ screen (kinase selectivity in THP-1 cell lysates)) EUB0000639a CAMKK2; assay type: subcellular; details: lysate
[17] = target: Activin receptor type-2A (Homo sapiens) (UniProt P27037); assay: Selectivity interaction (KinomeScan (DiscoverX)) EUB0000655a ACVR2A; details: at 10 µM
[18] = target: Serine/threonine-protein kinase PAK 1 (Homo sapiens) (UniProt Q13153); assay: Selectivity interaction (KinomeScan (DiscoverX)) EUB0000655a PAK1; details: at 10 µM

Serine/threonine-protein kinase 32C (Homo sapiens), sequence (Q86UX6 whole entry): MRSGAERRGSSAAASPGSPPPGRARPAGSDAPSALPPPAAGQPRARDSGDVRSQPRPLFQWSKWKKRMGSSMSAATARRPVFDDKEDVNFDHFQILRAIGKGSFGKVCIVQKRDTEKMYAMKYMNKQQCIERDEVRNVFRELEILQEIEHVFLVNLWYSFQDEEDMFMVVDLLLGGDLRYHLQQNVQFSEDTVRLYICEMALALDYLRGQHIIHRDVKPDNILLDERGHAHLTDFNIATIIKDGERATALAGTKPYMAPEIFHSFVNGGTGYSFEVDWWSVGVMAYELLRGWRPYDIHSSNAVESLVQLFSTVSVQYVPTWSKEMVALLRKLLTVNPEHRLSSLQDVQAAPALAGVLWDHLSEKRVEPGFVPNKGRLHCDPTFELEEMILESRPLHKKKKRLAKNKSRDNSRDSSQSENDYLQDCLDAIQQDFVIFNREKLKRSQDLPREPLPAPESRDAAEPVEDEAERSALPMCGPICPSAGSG
Calcium/calmodulin-dependent protein kinase kinase 2 (Homo sapiens), sequence (Q96RR4 2-588 limits assumed): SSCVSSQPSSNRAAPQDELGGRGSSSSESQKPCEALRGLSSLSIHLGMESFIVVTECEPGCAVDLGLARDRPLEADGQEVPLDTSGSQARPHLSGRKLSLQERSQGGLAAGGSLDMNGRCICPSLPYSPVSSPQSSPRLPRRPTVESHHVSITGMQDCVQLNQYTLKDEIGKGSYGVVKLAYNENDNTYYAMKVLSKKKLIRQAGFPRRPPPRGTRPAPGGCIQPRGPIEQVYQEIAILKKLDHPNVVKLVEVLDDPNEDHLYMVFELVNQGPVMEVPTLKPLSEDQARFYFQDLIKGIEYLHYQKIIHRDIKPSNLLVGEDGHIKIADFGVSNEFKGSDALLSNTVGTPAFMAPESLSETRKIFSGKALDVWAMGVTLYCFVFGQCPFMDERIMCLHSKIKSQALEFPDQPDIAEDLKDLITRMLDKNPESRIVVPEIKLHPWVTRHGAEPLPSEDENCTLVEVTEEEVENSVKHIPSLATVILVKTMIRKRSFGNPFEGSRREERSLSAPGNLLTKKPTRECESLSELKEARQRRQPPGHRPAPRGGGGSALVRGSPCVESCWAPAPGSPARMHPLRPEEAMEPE
DNA (cytosine-5)-methyltransferase 1 (Homo sapiens), sequence (P26358 whole entry): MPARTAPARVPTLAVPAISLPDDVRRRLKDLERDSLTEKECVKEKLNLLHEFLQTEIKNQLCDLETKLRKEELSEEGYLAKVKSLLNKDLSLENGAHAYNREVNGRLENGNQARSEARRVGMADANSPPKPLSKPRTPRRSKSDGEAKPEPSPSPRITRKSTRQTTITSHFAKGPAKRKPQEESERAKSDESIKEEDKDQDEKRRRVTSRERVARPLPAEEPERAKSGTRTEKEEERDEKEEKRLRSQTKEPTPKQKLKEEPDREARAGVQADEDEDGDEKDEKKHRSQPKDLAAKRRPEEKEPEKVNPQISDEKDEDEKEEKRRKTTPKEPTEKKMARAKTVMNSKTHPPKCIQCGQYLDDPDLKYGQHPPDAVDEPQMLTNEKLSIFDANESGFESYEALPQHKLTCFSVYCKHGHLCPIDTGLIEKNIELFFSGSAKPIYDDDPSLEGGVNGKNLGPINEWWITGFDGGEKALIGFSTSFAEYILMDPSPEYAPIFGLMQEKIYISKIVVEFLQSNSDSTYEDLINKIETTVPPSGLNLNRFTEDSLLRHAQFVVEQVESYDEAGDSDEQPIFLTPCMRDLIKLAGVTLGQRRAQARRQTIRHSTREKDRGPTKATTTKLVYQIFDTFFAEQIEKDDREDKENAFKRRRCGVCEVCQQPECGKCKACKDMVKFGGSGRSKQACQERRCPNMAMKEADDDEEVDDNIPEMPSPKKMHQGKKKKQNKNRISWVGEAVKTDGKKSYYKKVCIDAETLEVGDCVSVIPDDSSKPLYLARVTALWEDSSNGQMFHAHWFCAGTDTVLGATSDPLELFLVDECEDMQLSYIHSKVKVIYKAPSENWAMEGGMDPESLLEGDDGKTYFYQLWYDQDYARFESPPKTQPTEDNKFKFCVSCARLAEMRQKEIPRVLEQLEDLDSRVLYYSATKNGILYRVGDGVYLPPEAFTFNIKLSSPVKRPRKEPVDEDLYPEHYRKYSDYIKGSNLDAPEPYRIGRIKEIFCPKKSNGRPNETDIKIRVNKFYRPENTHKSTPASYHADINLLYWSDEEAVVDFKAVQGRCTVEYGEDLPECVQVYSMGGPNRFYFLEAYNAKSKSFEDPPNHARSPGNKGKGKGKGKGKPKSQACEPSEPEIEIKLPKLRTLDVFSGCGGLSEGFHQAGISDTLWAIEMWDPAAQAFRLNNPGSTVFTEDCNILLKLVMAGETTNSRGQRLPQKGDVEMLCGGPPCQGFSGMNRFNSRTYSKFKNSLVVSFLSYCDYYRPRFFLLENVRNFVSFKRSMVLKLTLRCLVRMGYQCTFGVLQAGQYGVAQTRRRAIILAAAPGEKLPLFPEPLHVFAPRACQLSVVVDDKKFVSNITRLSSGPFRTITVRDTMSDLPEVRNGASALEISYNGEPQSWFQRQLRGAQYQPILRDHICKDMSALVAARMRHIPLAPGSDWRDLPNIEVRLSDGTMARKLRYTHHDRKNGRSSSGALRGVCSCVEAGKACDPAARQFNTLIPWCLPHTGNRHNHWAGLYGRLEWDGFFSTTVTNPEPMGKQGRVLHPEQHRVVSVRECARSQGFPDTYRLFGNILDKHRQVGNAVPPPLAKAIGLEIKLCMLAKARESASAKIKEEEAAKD
Ribosomal protein S6 kinase alpha-6, sequence (Q9UK32 whole entry): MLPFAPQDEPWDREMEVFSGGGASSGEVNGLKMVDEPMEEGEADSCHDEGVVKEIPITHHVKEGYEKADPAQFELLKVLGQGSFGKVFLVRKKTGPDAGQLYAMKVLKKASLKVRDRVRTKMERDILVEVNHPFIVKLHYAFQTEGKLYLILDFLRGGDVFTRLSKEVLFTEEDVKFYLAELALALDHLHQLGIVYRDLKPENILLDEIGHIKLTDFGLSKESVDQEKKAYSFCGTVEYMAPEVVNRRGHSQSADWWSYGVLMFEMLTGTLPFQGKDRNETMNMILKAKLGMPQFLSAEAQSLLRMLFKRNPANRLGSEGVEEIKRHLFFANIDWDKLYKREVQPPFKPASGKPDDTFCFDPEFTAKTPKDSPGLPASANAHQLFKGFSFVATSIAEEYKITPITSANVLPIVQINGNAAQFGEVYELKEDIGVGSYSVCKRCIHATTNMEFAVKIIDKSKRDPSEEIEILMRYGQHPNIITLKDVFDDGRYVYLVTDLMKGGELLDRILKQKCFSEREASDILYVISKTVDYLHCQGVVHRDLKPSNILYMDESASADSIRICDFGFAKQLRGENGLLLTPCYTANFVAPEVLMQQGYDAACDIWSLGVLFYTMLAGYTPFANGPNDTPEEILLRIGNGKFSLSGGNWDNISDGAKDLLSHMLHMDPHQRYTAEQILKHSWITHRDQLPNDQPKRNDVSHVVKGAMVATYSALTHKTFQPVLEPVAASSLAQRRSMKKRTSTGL
Epidermal growth factor receptor (Homo sapiens), P00533 [UNDEFINED MUTATION], sequence (P00533 whole entry, looked up, change not shown): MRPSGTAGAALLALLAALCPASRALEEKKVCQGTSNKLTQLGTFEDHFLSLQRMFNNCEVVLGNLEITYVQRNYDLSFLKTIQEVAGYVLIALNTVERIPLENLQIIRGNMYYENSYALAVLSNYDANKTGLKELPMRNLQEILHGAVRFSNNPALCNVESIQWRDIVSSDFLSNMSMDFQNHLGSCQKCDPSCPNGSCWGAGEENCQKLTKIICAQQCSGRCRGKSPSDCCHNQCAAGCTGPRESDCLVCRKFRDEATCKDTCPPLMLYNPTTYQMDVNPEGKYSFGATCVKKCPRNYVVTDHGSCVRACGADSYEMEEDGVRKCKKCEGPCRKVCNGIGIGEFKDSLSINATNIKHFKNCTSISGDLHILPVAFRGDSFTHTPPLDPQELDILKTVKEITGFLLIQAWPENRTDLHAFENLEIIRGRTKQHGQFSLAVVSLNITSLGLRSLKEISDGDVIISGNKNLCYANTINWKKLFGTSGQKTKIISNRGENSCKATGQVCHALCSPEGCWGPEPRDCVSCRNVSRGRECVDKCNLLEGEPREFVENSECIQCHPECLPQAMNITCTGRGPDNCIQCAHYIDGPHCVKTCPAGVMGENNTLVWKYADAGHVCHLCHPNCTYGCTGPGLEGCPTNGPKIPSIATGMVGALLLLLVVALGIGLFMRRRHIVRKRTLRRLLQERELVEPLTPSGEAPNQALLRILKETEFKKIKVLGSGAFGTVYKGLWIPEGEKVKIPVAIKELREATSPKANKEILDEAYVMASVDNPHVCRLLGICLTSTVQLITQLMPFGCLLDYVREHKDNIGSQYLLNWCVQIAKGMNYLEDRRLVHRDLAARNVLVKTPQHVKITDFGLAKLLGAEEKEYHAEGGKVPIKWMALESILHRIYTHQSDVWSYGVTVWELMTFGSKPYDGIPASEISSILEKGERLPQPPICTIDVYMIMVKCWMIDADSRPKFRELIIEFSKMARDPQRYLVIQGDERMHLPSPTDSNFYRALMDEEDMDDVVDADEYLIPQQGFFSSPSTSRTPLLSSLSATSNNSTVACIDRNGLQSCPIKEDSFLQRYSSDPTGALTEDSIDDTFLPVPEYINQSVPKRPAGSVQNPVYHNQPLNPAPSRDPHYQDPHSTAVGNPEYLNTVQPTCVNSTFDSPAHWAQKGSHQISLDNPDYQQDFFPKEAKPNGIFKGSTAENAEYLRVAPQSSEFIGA
Mu-type opioid receptor, sequence (P35372 whole entry): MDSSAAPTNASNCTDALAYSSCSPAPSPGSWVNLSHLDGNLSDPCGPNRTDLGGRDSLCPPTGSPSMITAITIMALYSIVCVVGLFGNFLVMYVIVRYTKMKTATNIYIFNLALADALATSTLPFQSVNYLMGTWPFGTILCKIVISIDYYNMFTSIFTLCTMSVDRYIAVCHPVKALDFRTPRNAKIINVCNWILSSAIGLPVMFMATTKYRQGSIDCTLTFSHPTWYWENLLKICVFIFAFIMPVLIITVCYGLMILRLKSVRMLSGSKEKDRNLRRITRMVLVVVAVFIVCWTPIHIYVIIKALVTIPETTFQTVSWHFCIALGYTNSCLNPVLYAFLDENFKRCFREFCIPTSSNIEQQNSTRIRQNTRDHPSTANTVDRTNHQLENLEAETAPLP

## COc1cc(N(C)c2ccnc3ccc(C(F)(F)F)cc23)cc(OC)c1OC
[1]
  % binding: 81%
[2]
  % binding: 100%
[3]
  % binding: 100%

## COCC(=O)NC/C=C/c1ccc2ncnc(Nc3ccc(Oc4ccc(C)nc4)c(C)c3)c2c1 [CP-724714]
[4]
  % of control: 97%
[5]
  % of control: 100%
[6]
  % of control: 92%

## Nc1cnc(N2CCc3cc(S(=O)(=O)Nc4c(F)cc(Cl)cc4F)cc(N4CCCC4=O)c32)nc1 [TP-020n]
[7]
  % of control: 100%
[8]
  % of control: 100%

## Cc1cc([C@@H](C)Nc2ccccc2C(=O)O)c2nc(N3CCOCC3)cc(=O)n2c1 [AZD-6482]
[9]
  % of control: 100%

## COc1cc(Nc2nc(C)cc(-c3cnn4nc(OC)ccc34)n2)cc(C(F)(F)F)c1
[10]
  % of control: 95%

## COCCN1CCC(c2cc(CN(C)C(=O)c3cccc(Oc4ccccc4)c3)ccn2)CC1
[11]; at 1 µM
  % activity: > 95%
[11]; at 10 µM
  % activity: 79%

## O[C@H]1CC[C@H](Nc2ncc3nc(Nc4c(F)cc(F)cc4F)n([C@H]4CCOC4)c3n2)CC1
[12]
  % of control: 78%

## CCn1c(-c2nc3cc(C(=O)N4CCCC(N)C4)ccc3n2C)cc2ccccc21 (configuration not stated)
[13]
  pXC50: < 4 M

## CC[C@@H]1[C@H](F)C(=O)N[C@@H]1COc1nccc2cc(C(N)=O)c(OC)cc12 [ZIMLOVISERTIB]
[14]; at 0.01 µM
  % of inhibition: -1.5%
[14]; at 0.04 µM
  % of inhibition: -7.2%
[14]; at 0.2 µM
  % of inhibition: -0.3%
[14]; at 1 µM
  % of inhibition: -5.2%
[14]; at 5 µM
  % of inhibition: -11.5%
[15]
  % of inhibition: -4.1%
[16]; at 0.01 µM
  % of inhibition: 5.1%
[16]; at 0.04 µM
  % of inhibition: 9.8%
[16]; at 0.2 µM
  % of inhibition: 8.1%
[16]; at 1 µM
  % of inhibition: 37.6%
[16]; at 5 µM
  % of inhibition: 63.5%

## CN(C)CCOc1ccc(-c2nc(-c3ccncc3)c(-c3ccc4c(c3)CC/C4=N\O)[nH]2)cc1
[17]
  % of control: 100%
[18]
  % of control: 87%
